Laboratory results from US9377472B2, “Biological complex specific for Alzheimer's disease detection in vitro and use thereof” (Amoneta Diagnostics, priority 2012, dated 2016).

Legend:
PC12 cells [1] = experiment: Calcium imaging (Fura-2) of differentiated PC12 cells after acute and/or chronic Aβ peptide application; assay type: cell-based, rat; details: preincubated overnight at low concentration (10 nM), then acute 1 μM Aβ1-42
Procedure: PC12 rat pheochromocytoma cells were cultured in RPMI 1640 medium (InVitrogen) supplemented with 5% heat-inactivated horse serum, 10% foetal bovine serum (Dominique Dutcher) and antibiotics (penicillin 100 U/ml, streptomycin 100 U/ml, Sigma) at 37° C. in 5% CO2. PC12 cells were reseeded once a week. Before use, cells were platted in 35 mm glass-bottom culture dishes coated with type I collagen and Poly-L-ornithine; NGF (50 μg/1, Sigma) was added in the culture medium to induce their neuronal differentiation. Cells were used after 5 days in vitro, when they express a complete neuronal phenotype (neurite like extensions, voltage dependent ionic channels, neurotransmitters receptors and neurotransmitter secretion capacities).
PC12 cells platted on glass-bottom culture dishes were loaded with Fura-2 AM (1 μM, InVitrogen) and pluronic acid (InVitrogen) in a Hepes buffer for 20 min at 37° C. […] Fluorescence was excited by a xenon lamp equipped with two alternating filters allowing a fluorescence excitation at 350 nm for Ca^2+-bound Fura-2 and at 380 nm for Ca^2+-unbound Fura-2. Image pairs were recorded during 20 minutes every 5 seconds using an EM-CCD camera (Hamamatsu Photonics). Emitted fluorescence intensities (510 nm) were measured from regions of interest centered on individual cells. Normalized ratios were calculated. […]

PC12 cells [2] = experiment: Immunocytochemistry of Aβ oligomers bound to PC12 cells (A11 antibody); assay type: cell-based, rat
Procedure: In an attempt to characterise the tertiary form of the peptide bound to the cells and responsible for the priming effect that was observed immunocytochemical experiments were performed: PC12 cells were plated on poly-L-ornithine coated coverslips and maintained for 5 days in culture media supplemented with NGF to induce neuronal differentiation at 37° C. According to experimental conditions, PC 12 cells have undergone a chronic treatment and/or an acute treatment (see Example 1). Cells were subsequently rinsed to eliminate unbound Aβ and fixed with 4% paraformaldehyde in phosphate buffered saline (PBS) for 10 minutes. PC12 cells were then incubated in a blocking solution (3% Bovine Serum Albumin in PBS) for 1 hour at room temperature. A rabbit polyclonal antibody A11 (Millipore) directed against Aβ oligomers diluted 1:1500 in blocking solution was applied to the cells overnight at 4° C. Cells were washed three times for 10 minutes with the blocking solution and incubated with the appropriate secondary Dylight 549-conjugated antibody goat […], (Jackson Immunoresearch, diluted 1:2000) for 2 hours at room temperature, washed 3×10 minutes in PBS and mounted in Mowiol.
Panel G of FIG. 2(g) represents the quantification of the fluorescence intensity in the different experimental conditions in 2(a) to 2(f).

Aβ1-42: synthetic beta-amyloid peptide 1-42 (Bachem or Anaspec), SEQ ID NO: 4
priming: [Ca^2+]i response to subsequent acute 1 μM Aβ1-42 after overnight preincubation with the peptide (PC12 cells [1]): amplified | fluorescent signal of bound Aβ oligomers after acute application only (PC12 cells [2]; acute application of 1 μM, no preincubation): No significant fluorescent signal | fluorescent signal of bound Aβ oligomers, chronic preincubation associated to acute stimulation (PC12 cells [2]; chronic preincubation plus acute stimulation): a clear signal was observed | fluorescent signal of bound Aβ oligomers after preincubation only (PC12 cells [2]; preincubation with 10 or 50 nM, no acute application): No significant fluorescent signal
